# Data as given in patent US20230158157A1, “POTENT AND SELECTIVE DEGRADERS OF ALK” (DANA-FARBER CANCER INSTITUTE, INC., priority 2020, published 2023).
# Like-named read-outs stand apart in the source and are kept apart here.
# Columns and labels:
# H3122 cells = assay: CTG; assay type: cell-based; details: read-out: CTG IC50
# EML4-ALK = biological target: T1, EML4-ALK (Homo sapiens, UniProt Q9UM73); assay: EML4-ALK HiBit degradation assay in CRISPR-tagged H3122 cells (Nano-Glo HiBit Lytic Detection); assay type: cell-based
# T1 construct: endogenous in cells; host or cells: H3122 (NSCLC), single-cell clone after CRISPR knock-in of HiBit; the other entry of the earlier key: EML4 (Q9HC35, Echinoderm microtubule-associated protein-like 4)
# Protocol: NSCLC cell line H3122 was subjected to CRISPR to express EML4-ALK with HiBit-tag on its c-terminal. Single-cell clone was selected and expanded for the following assays that monitor endogenous EML4-ALK level in high throughput manner. Cells were seeded in 384-well white Tissue-culture plates at 3000 cells/well for 8 hours. […] HiBit signal was assessed using Nano-Glo® HiBit Lytic Detection System (Promega™). Degrader-treated was normalized by DMSO-treated controls and DC50 and Dmax were generated by GraphPad Prism® 8.0.
# NSCLC cell line H3122 was subjected to CRISPR to express EML4-ALK with HiBit-tag on its c-terminus. A single-cell clone was selected and expanded for the following assays that monitor endogenous EML4-ALK level in high throughput manner. Cells were seeded in 384-well white Tissue-culture plates at 3000 cells/well for 8 hours. […] HiBit signal was assessed using Nano-Glo® HiBit Lytic Detection System (Promega™). Degrader-treated cells were normalized by DMSO-treated controls and DC50 and Dmax were generated by GraphPad Prism® 8.0.
# NSCLC cell line H3122 was subjected to CRISPR to express EML4-ALK with HiBit-tag on its C-terminus. A single-cell clone was selected and expanded for the following assays that monitor endogenous EML4-ALK level in high throughput manner. Cells were seeded in 384-well white Tissue-culture plates at 3000 cells/well for 8 hours. […] HiBit signal was assessed using Nano-Glo® HiBit Lytic Detection System (Promega™). Degrader-treated cells were normalized by DMSO-treated controls and DC50 and Dmax were generated by GraphPad Prism® 8.0.
# [1] = Homo sapiens, NCI-H3122, Table 1
# [2] = NCI-H3122, Table 1, first Dmax column, H3122 EML4-ALK-HiBit, 16 hours, read-out: Degradation Dmax
# [3] = NCI-H3122, Table 1, second Dmax column, H3122 EML4-ALK-HiBit, 16 hours, read-out: Degradation Dmax
# [4] = NCI-H3122, Table 1, average Dmax, read-out: Degradation Avg. Dmax
# [5] = Table 1, first DC50 column, H3122 EML4-ALK-HiBit, 16 hours, read-out: Degradation DC50
# [6] = Table 1, second DC50 column, H3122 EML4-ALK-HiBit, 16 hours, read-out: Degradation DC50
# [7] = Table 1, average DC50, read-out: Degradation Avg. DC50
# [8] = Table 2, first DC50 column, H3122 EML4-ALK-HiBit, 16 hours, read-out: Degradation DC50
# [9] = Table 2, average DC50, read-out: Degradation Avg. DC50
# [10] = Homo sapiens, NCI-H3122, Table 2
# [11] = NCI-H3122, Table 2, first Dmax column, H3122 EML4-ALK-HiBit, 16 hours, read-out: Degradation Dmax
# [12] = NCI-H3122, Table 2, average Dmax, read-out: Degradation Avg. Dmax
# [13] = NCI-H3122, Table 2, second Dmax column, H3122 EML4-ALK-HiBit, 16 hours, read-out: Degradation Dmax
# [14] = Table 2, second DC50 column, H3122 EML4-ALK-HiBit, 16 hours, read-out: Degradation DC50
# T1 sequence (Q9UM73 with tags, fused parts or gaps): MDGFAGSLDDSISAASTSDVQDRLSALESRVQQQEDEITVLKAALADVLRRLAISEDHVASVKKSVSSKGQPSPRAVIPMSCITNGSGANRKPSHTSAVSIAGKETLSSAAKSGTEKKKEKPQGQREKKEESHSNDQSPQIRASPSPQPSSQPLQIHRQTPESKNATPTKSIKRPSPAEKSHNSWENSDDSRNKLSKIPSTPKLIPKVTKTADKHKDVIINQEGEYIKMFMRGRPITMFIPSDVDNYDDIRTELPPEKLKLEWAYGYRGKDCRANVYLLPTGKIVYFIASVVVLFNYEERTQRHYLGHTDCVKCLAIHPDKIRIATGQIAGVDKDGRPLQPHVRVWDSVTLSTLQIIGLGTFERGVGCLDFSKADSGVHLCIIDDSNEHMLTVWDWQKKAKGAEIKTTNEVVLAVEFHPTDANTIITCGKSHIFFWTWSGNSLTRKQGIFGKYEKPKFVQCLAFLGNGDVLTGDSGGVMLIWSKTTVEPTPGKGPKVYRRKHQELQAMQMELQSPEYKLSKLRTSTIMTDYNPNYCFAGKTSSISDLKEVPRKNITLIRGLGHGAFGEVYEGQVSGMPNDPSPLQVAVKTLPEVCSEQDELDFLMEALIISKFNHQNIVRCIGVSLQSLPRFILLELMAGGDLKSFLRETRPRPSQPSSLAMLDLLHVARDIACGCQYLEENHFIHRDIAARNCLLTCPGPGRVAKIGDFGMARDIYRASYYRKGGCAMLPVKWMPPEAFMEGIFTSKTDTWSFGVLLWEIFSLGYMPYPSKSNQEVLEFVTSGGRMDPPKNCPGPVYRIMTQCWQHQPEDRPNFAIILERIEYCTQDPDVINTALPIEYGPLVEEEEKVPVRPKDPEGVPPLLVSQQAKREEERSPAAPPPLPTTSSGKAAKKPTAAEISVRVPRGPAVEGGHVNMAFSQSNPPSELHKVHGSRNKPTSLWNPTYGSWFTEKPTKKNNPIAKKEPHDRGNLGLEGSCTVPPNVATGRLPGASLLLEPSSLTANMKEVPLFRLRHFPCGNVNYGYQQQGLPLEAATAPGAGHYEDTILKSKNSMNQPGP
SMILES,IC50 (H3122 cells; [1]) [nM],Dmax (EML4-ALK; [2]) [%],Dmax (EML4-ALK; [3]) [%],Dmax (EML4-ALK; [4]) [%],DC50 (EML4-ALK; [5]) [nM],DC50 (EML4-ALK; [6]) [nM],DC50 (EML4-ALK; [7]) [nM],IC50 (H3122 cells; Table 1) [nM],IC50 (H3122 cells; Table 2) [nM],DC50 (EML4-ALK; [8]) [nM],DC50 (EML4-ALK; [9]) [nM],IC50 (H3122 cells; [10]) [nM],Dmax (EML4-ALK; [11]) [%],Dmax (EML4-ALK; [12]) [%],Dmax (EML4-ALK; [13]) [%],DC50 (EML4-ALK; [14]) [nM]
COc1cc(CCNCCCCCOc2cc(-c3scnc3C)ccc2[C@H](C)NC(=O)[C@@H]2C[C@@H](O)CN2C(=O)[C@@H](NC(C)=O)C(C)(C)C)c(C)cc1Nc1ncc(Cl)c(Nc2ccccc2S(=O)(=O)C(C)C)n1 [Compound 53],121,64.9,68.2,66.5,113,72,93,–,–,–,–,–,–,–,–,–
COc1cc(CCN(C)CCCCCOc2cc(-c3scnc3C)ccc2[C@H](C)NC(=O)[C@@H]2C[C@@H](O)CN2C(=O)[C@@H](NC(C)=O)C(C)(C)C)c(C)cc1Nc1ncc(Cl)c(Nc2ccccc2S(=O)(=O)C(C)C)n1 [Compound 54],73.6,68.4,68.2,–,67,57,62,–,–,–,–,–,–,–,–,–
CC[C@@H](NC(=O)C1CC(NC(=O)CCCCCCC(=O)N(C)CCc2cc(OC)c(Nc3ncc(Cl)c(Nc4ccccc4S(=O)(=O)C(C)C)n3)cc2C)CN1C(=O)[C@@H](NC(=O)[C@H](C)NC)C(C)(C)C)c1ccccc1 (stereo partly drawn) [Compound 55],296,74.6,102,88.2,624,360,492,–,–,–,–,–,–,–,–,–
CC[C@@H](NC(=O)[C@@H]1C[C@H](NC(=O)CCCCCCCC(=O)N(C)CCc2cc(OC)c(Nc3ncc(Cl)c(Nc4ccccc4S(=O)(=O)C(C)C)n3)cc2C)CN1C(=O)[C@@H](NC(=O)[C@H](C)NC)C(C)(C)C)c1ccccc1 [Compound 56],–,–,–,–,163,226,195,360,–,–,–,–,–,–,–,–
COc1cc(CCN(C)C(=O)CCCNC(=O)COc2cccc3c2C(=O)N(C2CCC(=O)NC2=O)C3=O)c(C)cc1Nc1ncc(Cl)c(Nc2ccccc2P(C)(C)=O)n1 (stereo not drawn) [Compound 57],–,–,–,–,–,–,–,–,> 10000,9340,9340,–,–,–,–,–
COc1cc(CCN(C)C(=O)CCCCCCCCNC(=O)COc2cccc3c2C(=O)N(C2CCC(=O)NC2=O)C3=O)c(C)cc1Nc1ncc(Cl)c(Nc2ccccc2P(C)(C)=O)n1 (stereo not drawn) [Compound 59],–,–,–,–,–,–,–,–,–,3740,3740,1720,33.7,33.7,–,–
COc1cc(CCN(C)C(=O)CCCC#Cc2cccc3c2C(=O)N(C2CCC(=O)NC2=O)C3=O)c(C)cc1Nc1ncc(Cl)c(Nc2ccccc2P(C)(C)=O)n1 (stereo not drawn) [Compound 61],–,–,–,–,–,–,–,–,–,9040,8700,> 10000,29.5,34.5,39.6,8370
COc1cc(CCN(C)C(=O)CCCCCC#Cc2cccc3c2C(=O)N(C2CCC(=O)NC2=O)C3=O)c(C)cc1Nc1ncc(Cl)c(Nc2ccccc2P(C)(C)=O)n1 (stereo not drawn) [Compound 62],–,–,–,–,–,–,–,–,–,4380,4380,> 10000,27.8,27.8,–,–
COc1cc(CCN(C)C(=O)CCOCCOCCOCC#Cc2cccc3c2C(=O)N(C2CCC(=O)NC2=O)C3=O)c(C)cc1Nc1ncc(Cl)c(Nc2ccccc2P(C)(C)=O)n1 (stereo not drawn) [Compound 63],–,–,–,–,–,–,–,–,–,3910,3910,> 10000,27.3,27.3,–,–
COc1cc(CCN(C)C(=O)CCCCCNc2cccc3c2C(=O)N(C2CCC(=O)NC2=O)C3=O)c(C)cc1Nc1ncc(Cl)c(Nc2ccccc2P(C)(C)=O)n1 (stereo not drawn) [Compound 65],–,–,–,–,–,–,–,–,–,2560,2560,1100,26.2,26.2,–,–
COc1cc(CCN(C)C(=O)CCCCCCCCNc2cccc3c2C(=O)N(C2CCC(=O)NC2=O)C3=O)c(C)cc1Nc1ncc(Cl)c(Nc2ccccc2P(C)(C)=O)n1 (stereo not drawn) [Compound 66],–,–,–,–,–,–,–,–,–,1730,1200,1630,23.6,36.5,49.3,670
COc1cc(CCNCCCC(=O)N[C@H](C(=O)N2C[C@H](O)C[C@H]2C(=O)N[C@@H](C)c2ccc(-c3scnc3C)cc2)C(C)(C)C)c(C)cc1Nc1ncc(Cl)c(Nc2ccccc2P(C)(C)=O)n1 [Compound 72],–,–,–,–,–,–,–,–,–,8820,6200,2950,37.9,37.9,37.9,3590
COc1cc(CCNCCCCCSC(C)(C)C(NC(C)=O)C(=O)N2C[C@H](O)C[C@H]2C(=O)N[C@@H](C)c2ccc(-c3scnc3C)cc2)c(C)cc1Nc1ncc(Cl)c(Nc2ccccc2P(C)(C)=O)n1 (stereo partly drawn) [Compound 73],–,–,–,–,–,–,–,–,–,3270,2230,788,59.6,60.8,62,1180
COc1cc(CCN(C)C(=O)CCCNc2cccc3c2C(=O)N(C2CCC(=O)NC2=O)C3=O)c(C)cc1Nc1ncc(Cl)c(Nc2ccccc2S(=O)(=O)C(C)C)n1 (stereo not drawn) [compound 1],44.8,25.8,–,23.8,32,–,32,–,–,–,–,–,–,–,–,–
"COc1cc(CCN(C)C(=O)CCCCCNc2cccc3c2C(=O)N(C2CCC(=O)NC2=O)C3=O)c(C)cc1Nc1ncc(Cl)c(Nc2ccccc2S(=O)(=O)C(C)C)n1 (stereo not drawn) [compound 2, N-(4-((5-chloro-4-((2-(isopropylsulfonyl)phenyl)amino)pyrimidin-2-yl)amino)-5-methoxy-2-methylphenethyl)-6-((2-(2,6-dioxopiperidin-3-yl)-1,3-dioxoisoindolin-4-yl)amino)-N-methylhexanamide]",76.9,24.1,–,31.4,67,46,57,–,–,–,–,–,–,–,–,–
"COc1cc(CCN(C)C(=O)CCCCCCCCNc2cccc3c2C(=O)N(C2CCC(=O)NC2=O)C3=O)c(C)cc1Nc1ncc(Cl)c(Nc2ccccc2S(=O)(=O)C(C)C)n1 (stereo not drawn) [compound 3, N-(4-((5-chloro-4-((2-(isopropylsulfonyl)phenyl)amino)pyrimidin-2-yl)amino)-5-methoxy-2-methylphenethyl)-9-((2-(2,6-dioxopiperidin-3-yl)-1,3-dioxoisoindolin-4-yl)amino)-N-methylnonanamide]",136,–,38.4,–,–,346,–,–,–,–,–,–,–,–,–,–
"COc1cc(CCN(C)C(=O)CCOCCOCCNc2cccc3c2C(=O)N(C2CCC(=O)NC2=O)C3=O)c(C)cc1Nc1ncc(Cl)c(Nc2ccccc2S(=O)(=O)C(C)C)n1 (stereo not drawn) [compound 4, N-(4-((5-chloro-4-((2-(isopropylsulfonyl)phenyl)amino)pyrimidin-2-yl)amino)-5-methoxy-2-methylphenethyl)-3-(2-(2-((2-(2,6-dioxopiperidin-3-yl)-1,3-dioxoisoindolin-4-yl)amino)ethoxy)ethoxy)-N-methylpropanamide]",25.1,44.8,33,38.9,100,34,67,–,–,–,–,–,–,–,–,–
